Laboratory results: US6946458B2, “N-thiolated beta-lactams: novel antibacterial agents for methicillin-resistant Staphylococcus aureus” (University of South Florida, priority 1999, dated 2005)

Legend:
Assay in all cases: Kirby-Bauer agar disk diffusion
Staph aureus 525 = type: cell-based, Staphylococcus aureus; details: Table 5
MRSA USF654 = type: cell-based, Staphylococcus aureus; design: Kirby-Bauer Disc Diffusion Test Results: unit not given here; details: for zone of growth inhibition, average diameter: Table 3, 6-mm disks, 20 μg test compound, 24 hours
Experimental: (§1) In this study, a selection of N-methylthio-substituted β-lactams are examined for antimicrobial activity by the Kirby-Bauer disk diffusion method on agar plates. A variety of common Gram-positive and Gram-negative bacteria are tested, including clinical isolates of methicillin-resistant Staphylococcus aureus (MRSA).
(§2) Compound susceptibility measurements are obtained from agar disk diffusion experiments using 6-mm air-dried disks impregnated with 20 μg of the test compound. The values correspond to the average diameters in mm (triplicate experiments) for the zone of growth inhibition observed after 24 h. Staphylococcus aureus (ATCC 25923) and β-lactamase-producing strains of methicillin-resistant Staphylococcus aureus (labeled as MRSA USF652-659) are obtained from Lakeland Regional Medical Center, Lakeland, Fla. Staphylococcus epidermidis, Staphylococcus simulans, Staphylococcus simulans, and Microcossus luteus are clinical isolates from University of South Florida Medical Clinic. Nieserria gonnorhoeae (β-lactamase positive) is obtained from the Tampa Branch State Laboratory. PenG is penicillin G (potassium salt). Table 1 provides the zones of growth inhibition that are observed after 24 hours using the lactams of FIGS. 1A-1I (designated A-I, respectively).
(§3) Of particular interest is the ability of these compounds to retain their effectiveness against penicillin-resistant strains of Staphylococcus aureus, a dangerous hospital-borne pathogen which is becoming difficult to treat with conventional antibiotic therapy. The lactams were screened for antibacterial activity by disk diffusion on agar plates, and the resulting zones of bacterial growth inhibition measured (see Table 3; each lactam is designated by Figure number).
(§4) Table 3: Growth inhibition zones obtained from agar disk diffusion experiments using 6-mm air-dried disks impregnated with 20 μg of the test compound. The values correspond to the average diameters in mm for the zone of growth inhibition observed after 24 hours. Staphylococcus aureus and β-lactamase-producing strains of methicillin-resistant Staphylococcus aureus (labeled MRSA USF652-659) are obtained from a clinical testing laboratory at Lakeland Regional Medical Center, Lakeland, Fla.
(§5) Those compounds were tested for bioactivity using the Kirby-Bauer test on agar plates.
(§6) Biological activity is enhanced against β-lactamase producing strains of methicillin-resistant Staphylococcus aureus (MRSA). With the lactam shown in FIG. 11A serving as a lead structure, a series of other C-4 substituted derivatives (FIGS. 11B-11I) were investigated herein. Table 5 lists microbiological data for β-lactams from Kirby-Bauer Disc Diffusion Test Results (with each lactam identified by Figure number).
(§7) Scheme I summarizes the synthesis of ester compounds 4. 4-Carboxy benzaldehyde (1) is coupled with the appropriate alcohol using DCC/DMAP, followed by reaction with p-anisidine, to give imines 2. Staudinger coupling of methoxyacetyl chloride with imine 2 gives N-aryl protected β-lactam 3. N-Dearylation of β-lactam 3 with ceric ammonium nitrate and methylthiolation with N-(methylthio)phthalimide affords N-methylthio β-lactams 4. These compounds are tested for antibacterial activity by the Kirby-Bauer method of disc diffusion on agar plates. [drawing 7]

MRSA USF659 = type: cell-based, Staphylococcus aureus; design: Kirby-Bauer Disc Diffusion Test Results: unit not given here; details: for zone of growth inhibition, average diameter: Table 3, 6-mm disks, 20 μg test compound, 24 hours
Experimental: as §1, §2, §3, §4, §5, §6, §7

MRSA USF657 = type: cell-based, Staphylococcus aureus; design: Kirby-Bauer Disc Diffusion Test Results: unit not given here; details: for zone of growth inhibition, average diameter: Table 3, 6-mm disks, 20 μg test compound, 24 hours
Experimental: as §1, §2, §3, §4, §5, §6, §7

MRSA USF652 = type: cell-based, Staphylococcus aureus; design: Kirby-Bauer Disc Diffusion Test Results: unit not given here; details: for zone of growth inhibition, average diameter: Table 3, 6-mm disks, 20 μg test compound, 24 hours
Experimental: as §1, §2, §3, §4, §5, §6, §7

MRSA USF656 = type: cell-based, Staphylococcus aureus; design: Kirby-Bauer Disc Diffusion Test Results: unit not given here; details: for zone of growth inhibition, average diameter: Table 3, 6-mm disks, 20 μg test compound, 24 hours
Experimental: as §1, §2, §3, §4, §5, §6, §7

MRSA USF653 = type: cell-based, Staphylococcus aureus; design: Kirby-Bauer Disc Diffusion Test Results: unit not given here; details: for zone of growth inhibition, average diameter: Table 3, 6-mm disks, 20 μg test compound, 24 hours
Experimental: as §1, §2, §3, §4, §5, §6, §7

MRSA USF658 = type: cell-based, Staphylococcus aureus; design: Kirby-Bauer Disc Diffusion Test Results: unit not given here; details: for zone of growth inhibition, average diameter: Table 3, 6-mm disks, 20 μg test compound, 24 hours
Experimental: as §1, §2, §3, §4, §5, §6, §7

MRSA USF655 = type: cell-based, Staphylococcus aureus; design: Kirby-Bauer Disc Diffusion Test Results: unit not given here; details: for zone of growth inhibition, average diameter: Table 3, 6-mm disks, 20 μg test compound, 24 hours
Experimental: as §1, §2, §3, §4, §5, §6, §7

[1] = test system: S. saprophyticus (ATCC 3552); type: cell-based, Staphylococcus saprophyticus; details: Table 3, 6-mm disks, 20 μg test compound, 24 hours
Experimental: as §1, §2, §3, §4

[2] = test system: Staphylococcus aureus (ATCC 25923); type: cell-based; details: Table 3, 6-mm disks, 20 μg test compound, 24 hours
Experimental: as §1, §2, §3, §4

Micrococcus luteus = type: cell-based; details: Table 3, 6-mm disks, 20 μg test compound, 24 hours
Experimental: as §1, §2, §3, §4

[3] = test system: Staphylococcus epidermidis; type: cell-based; details: Table 3, 6-mm disks, 20 μg test compound, 24 hours
Experimental: as §1, §2, §3, §4

S. simulans (ATCC 11631) = type: cell-based, Staphylococcus simulans; details: Table 3, 6-mm disks, 20 μg test compound, 24 hours
Experimental: as §1, §2, §3, §4

[4] = Table 5, beta-lactamase producing strain

Compound | zone of growth inhibition, average diameter [1] [mm] | zone of growth inhibition, average diameter [2] [mm] | zone of growth inhibition, average diameter (Micrococcus luteus) [mm] | zone of growth inhibition, average diameter [3] [mm] | zone of growth inhibition, average diameter (MRSA USF654) [mm] | zone of growth inhibition, average diameter (MRSA USF659) [mm] | zone of growth inhibition, average diameter (MRSA USF657) [mm] | zone of growth inhibition, average diameter (MRSA USF652) [mm] | zone of growth inhibition, average diameter (MRSA USF656) [mm] | zone of growth inhibition, average diameter (MRSA USF653) [mm] | zone of growth inhibition, average diameter (MRSA USF658) [mm] | zone of growth inhibition, average diameter (MRSA USF655) [mm] | zone of growth inhibition, average diameter (S. simulans (ATCC 11631)) [mm] | also measured
COC1C(=O)N(SC)C1c1ccccc1 (racemic) [FIG. 11B] | – | – | – | – | – | – | – | – | – | – | – | – | – | Kirby-Bauer Disc Diffusion Test Results (Staph aureus 525): 25; Kirby-Bauer Disc Diffusion Test Results (MRSA USF654; [4]): 26; Kirby-Bauer Disc Diffusion Test Results (MRSA USF659; [4]): 24; Kirby-Bauer Disc Diffusion Test Results (MRSA USF657; [4]): 28; Kirby-Bauer Disc Diffusion Test Results (MRSA USF652; [4]): 30; Kirby-Bauer Disc Diffusion Test Results (MRSA USF656; [4]): 28; Kirby-Bauer Disc Diffusion Test Results (MRSA USF653; [4]): 30; Kirby-Bauer Disc Diffusion Test Results (MRSA USF658; [4]): 27; Kirby-Bauer Disc Diffusion Test Results (MRSA USF655; Table 5): 26
CSN1C(=O)C(OC(C)=O)C1C=Cc1ccccc1 (racemic) [FIG. 3C] | 12 | 15 | 17 | 19 | 16 | 15 | 16 | 18 | 17 | 18 | 16 | 18 | 10 | –
COC1C(=O)N(SC)C1CCc1ccccc1 (racemic) [FIG. 3E] | 9 | 16 | 20 | 12 | 17 | 15 | 14 | 18 | 17 | 20 | 15 | 15 | 9 | –
COC1C(=O)N(SC)C1C=Cc1ccccc1 (racemic) [FIG. 3B] | – | – | – | – | – | – | – | – | – | – | – | – | – | zone of growth inhibition, average diameter ([1]; listed as 3B): 16 mm; zone of growth inhibition, average diameter ([2]; listed as 3B): 21 mm; zone of growth inhibition, average diameter (Micrococcus luteus; listed as 3B): 23 mm; zone of growth inhibition, average diameter ([3]; listed as 3B): 26 mm; zone of growth inhibition, average diameter (MRSA USF654; listed as 3B): 22 mm; zone of growth inhibition, average diameter (MRSA USF659; listed as 3B): 17 mm; zone of growth inhibition, average diameter (MRSA USF657; listed as 3B): 22 mm; zone of growth inhibition, average diameter (MRSA USF652; listed as 3B): 25 mm; zone of growth inhibition, average diameter (MRSA USF656; listed as 3B): 24 mm; zone of growth inhibition, average diameter (MRSA USF653; listed as 3B): 26 mm; zone of growth inhibition, average diameter (MRSA USF658; listed as 3B): 21 mm; zone of growth inhibition, average diameter (MRSA USF655; listed as 3B): 21 mm; zone of growth inhibition, average diameter (S. simulans (ATCC 11631); listed as 3B): 12 mm
COC1C(=O)N(SC)C1C=Cc1ccccc1 (racemic) [FIG. 3A] | – | – | – | – | – | – | – | – | – | – | – | – | – | zone of growth inhibition, average diameter ([1]; listed as 3A): 14 mm; zone of growth inhibition, average diameter ([2]; listed as 3A): 10 mm; zone of growth inhibition, average diameter (Micrococcus luteus; listed as 3A): 11 mm; zone of growth inhibition, average diameter ([3]; listed as 3A): 12 mm; zone of growth inhibition, average diameter (MRSA USF654; listed as 3A): 12 mm; zone of growth inhibition, average diameter (MRSA USF659; listed as 3A): 10 mm; zone of growth inhibition, average diameter (MRSA USF657; listed as 3A): 11 mm; zone of growth inhibition, average diameter (MRSA USF652; listed as 3A): 10 mm; zone of growth inhibition, average diameter (MRSA USF656; listed as 3A): 13 mm; zone of growth inhibition, average diameter (MRSA USF653; listed as 3A): 18 mm; zone of growth inhibition, average diameter (MRSA USF658; listed as 3A): 10 mm; zone of growth inhibition, average diameter (MRSA USF655; listed as 3A): 12 mm; zone of growth inhibition, average diameter (S. simulans (ATCC 11631); listed as 3A): 9 mm
COC1C(=O)N(SC)C1C#Cc1ccccc1 (racemic) [FIG. 2B] | 23 | 27 | 28 | 30 | 27 | 24 | 28 | 29 | 30 | 29 | 27 | 27 | 19 | –
